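Protocol summary: plate cells (96-well), add compound at 5 concentrations, incubate 48 h, interpolate endpoints linearly. TGI denotes the concentration required for complete inhibition of growth.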
Key:
Assay in all cases: DTP human tumour cell line panel, 48 h
786-0 renal = tested on: 786-0 renal
A549 NSCLC = tested on: A549 NSCLC
BT-549 breast = tested on: BT-549 breast
CAKI-1 renal = tested on: CAKI-1 renal
CCRF-CEM leukemia = tested on: CCRF-CEM leukemia
COLO 205 colon = tested on: COLO 205 colon
DU-145 prostate = tested on: DU-145 prostate
EKVX NSCLC = tested on: EKVX NSCLC
HCC-2998 colon = tested on: HCC-2998 colon
HCT-116 colon = tested on: HCT-116 colon
HCT-15 colon = tested on: HCT-15 colon
HL-60(TB) leukemia = tested on: HL-60(TB) leukemia
HOP-62 NSCLC = tested on: HOP-62 NSCLC
HS 578T breast = tested on: HS 578T breast
HT29 colon = tested on: HT29 colon
IGROV1 ovarian = tested on: IGROV1 ovarian
K-562 leukemia = tested on: K-562 leukemia
KM12 colon = tested on: KM12 colon
LOX IMVI melanoma = tested on: LOX IMVI melanoma
M14 melanoma = tested on: M14 melanoma
MALME-3M melanoma = tested on: MALME-3M melanoma
MCF7 breast = tested on: MCF7 breast
MDA-MB-231 breast = tested on: MDA-MB-231 breast
MDA-MB-435 = tested on: MDA-MB-435
MDA-N = tested on: MDA-N
MOLT-4 leukemia = tested on: MOLT-4 leukemia
NCI-H226 lung = tested on: NCI-H226 lung
NCI-H23 lung = tested on: NCI-H23 lung
NCI/ADR-RES ovarian = tested on: NCI/ADR-RES ovarian
OVCAR-3 ovarian = tested on: OVCAR-3 ovarian
OVCAR-4 ovarian = tested on: OVCAR-4 ovarian
OVCAR-5 ovarian = tested on: OVCAR-5 ovarian
OVCAR-8 ovarian = tested on: OVCAR-8 ovarian
PC-3 prostate = tested on: PC-3 prostate
RPMI-8226 leukemia = tested on: RPMI-8226 leukemia
RXF 393 renal = tested on: RXF 393 renal
SF-268 CNS = tested on: SF-268 CNS
SF-295 CNS = tested on: SF-295 CNS
SF-539 CNS = tested on: SF-539 CNS
SK-MEL-28 melanoma = tested on: SK-MEL-28 melanoma
SK-MEL-5 melanoma = tested on: SK-MEL-5 melanoma
SK-OV-3 ovarian = tested on: SK-OV-3 ovarian
SN12C renal = tested on: SN12C renal
SNB-19 CNS = tested on: SNB-19 CNS
SNB-75 CNS = tested on: SNB-75 CNS
SR leukemia = tested on: SR leukemia
SW-620 colon = tested on: SW-620 colon
TK-10 renal = tested on: TK-10 renal
U251 CNS = tested on: U251 CNS
UACC-257 melanoma = tested on: UACC-257 melanoma
UACC-62 melanoma = tested on: UACC-62 melanoma
UO-31 renal = tested on: UO-31 renal

Measured: TGI

O=C(c1nsc(Cl)c1Cl)N1CCCCC1
> 100 µM: all assays above

From PubChem BioAssay (NCI)
